Experimental data from patent publication US10118947B2, “Modulation of structured polypeptide specificity” (BICYCLE THERAPEUTICS LIMITED, priority 2013, dated 2018).
Read-outs that look alike come from different tables or passages of the source. Blank lines part the entries; values can stand above or below the compound they belong to. Numbered stars: 1 amine (or outer) side, 2 acyl side, 3 side chain; on linkers, the order of the positions; unused ones are H or OH. Bridge positions count the residues as written; N and C are the ends. Square brackets hold non-standard residues; d marks the D form. Peptide text beside a SMILES is read from it. Phe(4-guanidino) = N=C(N)Nc1ccc(C[C@H](N)C(=O)O)cc1; TBMB = c1c(C[*:1])cc(C[*:3])cc1C[*:2]; NMeR = CN[C@@H](CCCNC(=N)N)C(=O)O; Chg = N[C@H](C(=O)O)C1CCCCC1; Phg = N[C@H](C(=O)O)c1ccccc1; Aze = O=C(O)[C@@H]1CCN1

Experiments:
[1] = target: T1, rat plasma Kallikrein (Rattus norvegicus, UniProt P14272); conditions: Table 1; read-out: Ki (nM) (rat kallikrein); cited from earlier work
T1 construct: polyhistidine tag (N, cleaved yes); proTEV cleavage site (pro-peptide linker) (N, cleaved yes); made in house; host or cells: HEK-293 (suspension-adapted)
T1 sequence (P14272 391-638 limits assumed): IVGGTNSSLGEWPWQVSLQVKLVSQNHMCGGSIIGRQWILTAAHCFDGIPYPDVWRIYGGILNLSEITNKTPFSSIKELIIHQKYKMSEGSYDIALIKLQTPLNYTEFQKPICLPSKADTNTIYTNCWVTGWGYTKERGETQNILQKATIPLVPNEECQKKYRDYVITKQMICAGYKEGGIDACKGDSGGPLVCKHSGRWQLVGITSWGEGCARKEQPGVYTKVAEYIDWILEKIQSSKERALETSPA

[2] = Plasma stability / fragment profiling Method #2 (MALDI-TOF, 95% plasma), human plasma; format: in vitro ADME
Experimental: To obtain stability data more rapidly, peptides were also assessed in 95% plasma. Here, PBS was omitted, and a 1 mM peptide stock (in DMSO) was directly diluted into plasma (i.e. 2.5 uL stock into 47.5 uL plasma), giving a final concentration of 50 uM. 5 uL samples were taken at appropriate time points and frozen at −80 deg C. For analysis, the samples were defrosted, mixed with 15 uL of 1:1 acetonitrile:methanol, and centrifuged at 13 k for 5 min. 5 uL of the peptide-containing supernatant was aspirated and mixed with 30 mM ammonium bicarbonate in a 1:1 mixture of acetonitrile:H2O. 1 uL of this was then spotted on the MALDI plate and analysed as described above. As above, it should be noted that this is a qualitative assay serves to detect relative changes in plasma stability.
Ac-06-34-18(TMB)-NH2 Phe2 Tyr4 (referred to as wild type peptide) was subsequently subjected to human plasma, and analysed for fragments to appear over time. This was compared to the degradation profile observed in human plasma using the NMe-Arg5 derivative of 06-34-18 (FIGS. 18a and 18b). Fragmentation was determined according to Method #2.

[3] = target: T2, human plasma Kallikrein (Homo sapiens, UniProt P03952); experiment: Functional enzyme inhibition assay with fluorogenic substrate Z-PheArg-AMC, human plasma Kallikrein; format: biochemical
T2 construct: purchased Stratech, UK
T2 sequence (P03952 20-638): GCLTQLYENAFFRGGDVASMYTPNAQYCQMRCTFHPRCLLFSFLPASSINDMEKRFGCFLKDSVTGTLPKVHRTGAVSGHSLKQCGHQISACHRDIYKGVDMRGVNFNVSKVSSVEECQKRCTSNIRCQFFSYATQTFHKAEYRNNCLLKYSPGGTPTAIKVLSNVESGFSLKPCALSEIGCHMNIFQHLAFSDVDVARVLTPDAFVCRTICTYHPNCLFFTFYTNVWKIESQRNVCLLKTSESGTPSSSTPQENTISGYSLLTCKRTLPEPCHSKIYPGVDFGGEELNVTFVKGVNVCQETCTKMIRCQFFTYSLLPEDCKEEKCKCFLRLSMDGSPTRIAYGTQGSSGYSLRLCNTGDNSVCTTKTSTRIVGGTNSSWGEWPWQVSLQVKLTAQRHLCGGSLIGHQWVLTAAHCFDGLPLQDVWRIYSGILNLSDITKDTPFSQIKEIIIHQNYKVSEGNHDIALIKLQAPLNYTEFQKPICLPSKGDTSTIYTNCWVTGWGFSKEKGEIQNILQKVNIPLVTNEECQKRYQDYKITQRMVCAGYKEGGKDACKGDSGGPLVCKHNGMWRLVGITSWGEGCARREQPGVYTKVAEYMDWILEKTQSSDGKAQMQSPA
Method in brief: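 Rates of AMC release (excitation 360 nm, emission 460 nm) from 100 μM final Z-PheArg-AMC, 4% DMSO, were taken over the linear phase, typically 5 to 45 minutes. IC50 from four-parameter non-linear regression; Ki also derived.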

[4] = target: T1, rat plasma Kallikrein; experiment: Functional enzyme inhibition assay with fluorogenic substrate Z-PheArg-AMC, rat plasma Kallikrein; format: biochemical; conditions: Table 26a, loop2 stability enhanced candidates
Experimental: Functional enzyme assays were conducted in 10 mM Tris HCl, 150 mM NaCl, 10 mM MgCl2, 1 mM CaCl2) and 1 mg/mL BSA (all Sigma UK) pH7.4 at 25° C. in solid black 96 well plates. Briefly 26.5 pM human plasma Kallikrein (purchased from Stratech, UK) or 500 pM rat plasma Kallikrein (expressed and purified in house) were incubated in the absence or presence of increasing concentrations of test peptide for 15 minutes before addition of the fluorogenic substrate Z-PheArg-AMC (Enzo Lifesciences UK) to a final assay concentration of 100 μM in 4% DMSO. Release of AMC was measured using a Pherastar FS (BMG Labtech), excitation 360 nm, emission 460 nm. The rate of the linear phase of the reaction, typically 5 to 45 minutes, was calculated in MARS data analysis software (BMG labtech). The rate was then used to calculate the IC50 and Ki in Prism (GraphPad). A four parameter inhibition non-linear regression equation was used to calculate the IC50.
Peptides were dissolved as the TFA-salts in their powder form, and stock solutions were usually prepared in water. All solutions were centrifuged and filtered ([…] syringe filters) prior absorption measurement at 280 nm. Extinction coefficients were calculated based on the Trp/Tyr content of the peptide, and that of TMB (the TMB core, when contained in a peptide, has an ε of ˜300 M^−1cm^−1). For peptides containing non-natural amino acids with suspected chromophoric properties (i.e. NorHar, 4PhenylPro, 3Pal, 4Pal, Tic, 4GuanPhe, 4,4-BPAI, 3,3-DPA, 1NAI, 2NAI, 4BenzylPro, Ind) concentrations were determined by weighing the powder and dissolving the peptide in a defined quantity of water.

[5] = Table 24a, residue 6 modification in the context of Ac-(06-34-18) Phe2 Tyr4, read-out: Ki (nM) Ac-(06-34-18) Phe2 Tyr4

Fragments (human plasma) ([2]; Table 3b, peptide fragments observed after incubation in human plasma): -R, -FPYR
reduction in potency/affinity compared to wildtype [3]: 9 fold
Ki ([3]; Table 3b, D-amino acid scan in Loop2, read-out: Ki): 3.89 nM
F (Kivar/KiWT) ([3]; Table 3b, ratio of Ki to wild type): 9
Ki ([3]; read-out: Ki / affinity to human Kallikrein): 4 nM
Ki [4]: 32 nM
Compound: CC(=O)N[C@H]1CSCc2cc3cc(c2)CSC[C@H](NC(=O)[C@H](CCCNC(=N)N)NC(=O)[C@H](Cc2ccc(O)cc2)NC(=O)[C@@H]2CCCN2C(=O)[C@H](Cc2ccccc2)NC(=O)[C@H](CO)NC1=O)C(=O)N[C@@H](CC(C)C)C(=O)N[C@@H](Cc1c[nH]cn1)C(=O)N[C@@H](CCC(N)=O)C(=O)N[C@H](CC(=O)O)C(=O)N[C@@H](CC(C)C)C(=O)N[C@H](C(N)=O)CSC3 [Ac-(06-34-18) Phe2 Tyr4 D-Asp9] (Ac-CSFPYRCLHQ[dD]LC-NH2; linker 1-7-13 via TBMB)

Ki [3, 5]: 0.3 nM
Ki [4]: 7.23 nM
Compound: CC(=O)N[C@H]1CSCc2cc3cc(c2)CSC[C@H](NC(=O)[C@H](CCCNC(=N)N)NC(=O)[C@H](Cc2ccc(O)cc2)NC(=O)[C@@H]2CCCN2C(=O)[C@H](Cc2ccccc2)NC(=O)[C@H](CO)NC1=O)C(=O)N[C@@H](c1ccccc1)C(=O)N[C@@H](Cc1c[nH]cn1)C(=O)N[C@@H](CCC(N)=O)C(=O)N[C@@H](CC(=O)O)C(=O)N[C@@H](CC(C)C)C(=O)N[C@H](C(N)=O)CSC3 [Ac-(06-34-18) Phe2 Tyr4 Phg6] (Ac-CSFPYRC[Phg]HQDLC-NH2; linker 1-7-13 via TBMB)

The next lines start with the compound.

Compound: CC(=O)N[C@H]1CSCc2cc3cc(c2)CSC[C@H](NC(=O)[C@H](Cc2ccc(NC(=N)N)cc2)NC(=O)[C@H](Cc2ccc(O)cc2)NC(=O)[C@@H]2CCN2C(=O)[C@H](Cc2ccccc2)NC(=O)[C@H](CO)NC1=O)C(=O)N[C@@H](CC(C)C)C(=O)N[C@@H](Cc1c[nH]cn1)C(=O)N[C@@H](CCC(N)=O)C(=O)N[C@@H](CC(=O)O)C(=O)N[C@@H](CC(C)C)C(=O)N[C@H](C(N)=O)CSC3 [Ac-(06-34-18) Phe2 Aze3Tyr4 4GuanPhe5] (Ac-CSF[Aze]Y[Phe(4-guanidino)]CLHQDLC-NH2; linker 1-7-13 via TBMB)
Ki [1]: 1.2 nM

Compound: CC(=O)N[C@H]1CSCc2cc3cc(c2)CSC[C@H](NC(=O)[C@H](CCCNC(=N)N)N(C)C(=O)[C@H](Cc2ccc(O)cc2)NC(=O)[C@@H]2CCN2C(=O)[C@H](Cc2ccccc2)NC(=O)[C@H](CO)NC1=O)C(=O)N[C@@H](CC(C)C)C(=O)N[C@@H](Cc1c[nH]cn1)C(=O)N[C@@H](CCC(N)=O)C(=O)N[C@@H](CC(=O)O)C(=O)N[C@@H](CC(C)C)C(=O)N[C@H](C(N)=O)CSC3 [Ac-(06-34-18) Phe2 Aze3Tyr4 NMeArg5] (Ac-CSF[Aze]Y[NMeR]CLHQDLC-NH2; linker 1-7-13 via TBMB)
Ki [1]: 31.4 nM

Compound: CC(=O)N[C@H]1CSCc2cc3cc(c2)CSC[C@H](NC(=O)[C@H](CCCNC(=N)N)NC(=O)[C@H](Cc2ccc(O)cc2)NC(=O)[C@@H]2CCCN2C(=O)[C@H](Cc2ccccc2)NC(=O)[C@H](CO)NC1=O)C(=O)N[C@@H](C)CN[C@@H](Cc1c[nH]cn1)C(=O)N[C@@H](CCC(N)=O)C(=O)N[C@@H](CC(=O)O)C(=O)N[C@@H](CC(C)C)C(=O)N[C@H](C(N)=O)CSC3 [Ac-(06-34-18) Phe2 Tyr4 Ala(ψCH2NH)6]
degradation / fragments in human plasma (in words) ([2]; running text and figure legends): significantly enhanced stability in loop2
Kd [3]: 1.5 nM
F (Kivar/KiWT) ([3]; Table 25b, fold change of Ki of variant compared to WT): 4
Ki ([3]; Table 25b, peptide backbone modifications in Loop2, human plasma kallikrein, read-out: Ki): 1.47 nM
Ki [4]: 43.6 nM

Compound: CC(=O)N[C@H]1CSCc2cc3cc(c2)CSC[C@H](NC(=O)[C@H](CCCNC(=N)N)NC(=O)[C@H](Cc2ccc(O)cc2)NC(=O)[C@@H]2CCCN2C(=O)[C@H](Cc2ccccc2)NC(=O)[C@H](CO)NC1=O)C(=O)N[C@@H](C1CCCCC1)C(=O)N[C@@H](Cc1c[nH]cn1)C(=O)N[C@@H](CCC(N)=O)C(=O)N[C@@H](CC(=O)O)C(=O)N[C@@H](CC(C)C)C(=O)N[C@H](C(N)=O)CSC3 [Ac-(06-34-18) Phe2 Tyr4 Chg6] (Ac-CSFPYRC[Chg]HQDLC-NH2; linker 1-7-13 via TBMB)
Ki [3, 5]: 0.5 nM
Ki [4]: 9.09 nM
